Results on one compound are retold here after paper PMC3073417 (The Journal of neuroscience : the official journal of the …, 2011).

Each structure is given as a SMILES string.

The assay concerns the target hTRPA1 (Homo sapiens, UniProt O75762). In words: whole-cell patch clamp of HEK293 cells expressing hTRPA1. The format is cell-based.

hTRPA1, sequence (O75762 whole entry): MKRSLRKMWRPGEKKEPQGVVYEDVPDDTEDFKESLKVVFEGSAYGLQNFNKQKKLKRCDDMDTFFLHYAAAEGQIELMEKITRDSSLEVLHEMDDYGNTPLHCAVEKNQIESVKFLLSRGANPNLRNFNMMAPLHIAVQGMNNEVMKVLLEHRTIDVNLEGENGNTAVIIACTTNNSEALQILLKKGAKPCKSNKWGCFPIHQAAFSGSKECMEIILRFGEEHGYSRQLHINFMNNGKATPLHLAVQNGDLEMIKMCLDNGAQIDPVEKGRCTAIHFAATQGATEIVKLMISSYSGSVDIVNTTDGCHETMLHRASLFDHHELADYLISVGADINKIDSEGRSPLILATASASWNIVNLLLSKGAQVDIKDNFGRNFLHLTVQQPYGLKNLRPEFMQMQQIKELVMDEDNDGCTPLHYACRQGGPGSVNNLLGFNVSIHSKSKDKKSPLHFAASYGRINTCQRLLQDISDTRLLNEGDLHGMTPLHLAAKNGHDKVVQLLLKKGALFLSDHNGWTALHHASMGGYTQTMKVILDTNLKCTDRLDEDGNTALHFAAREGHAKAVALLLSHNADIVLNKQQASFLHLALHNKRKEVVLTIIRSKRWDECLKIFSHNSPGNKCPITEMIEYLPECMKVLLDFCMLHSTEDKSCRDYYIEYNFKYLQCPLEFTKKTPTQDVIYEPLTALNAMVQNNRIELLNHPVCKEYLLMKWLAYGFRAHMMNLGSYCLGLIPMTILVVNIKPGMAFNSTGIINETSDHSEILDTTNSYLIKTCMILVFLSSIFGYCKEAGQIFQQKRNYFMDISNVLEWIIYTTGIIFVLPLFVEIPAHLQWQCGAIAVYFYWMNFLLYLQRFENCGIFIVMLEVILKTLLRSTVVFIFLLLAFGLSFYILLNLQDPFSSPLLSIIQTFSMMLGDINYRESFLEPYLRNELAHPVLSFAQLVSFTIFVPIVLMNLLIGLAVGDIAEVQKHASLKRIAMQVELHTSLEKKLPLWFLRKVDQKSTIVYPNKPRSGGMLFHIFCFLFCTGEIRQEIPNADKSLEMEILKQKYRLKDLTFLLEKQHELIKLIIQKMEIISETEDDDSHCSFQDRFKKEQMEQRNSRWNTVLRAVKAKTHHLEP

The compound `C/C=C(/C=O)[C@@H](CC=O)CC(=O)OCCc1ccc(O)cc1` [OC, (−)-oleocanthal] had an EC50 of 2.8 µM.
